Columns and labels:
zebrafish embryos = experiment: Zebrafish embryo development (convergent extension); format: in vivo, zebrafish (danio rerio); settings: 1 μM, 1-cell stage embryos, 24 h
Method: Zebrafish experiments. Wild-type (AB) zebrafish strain at 1-cell stage were treated with IQ-1 at a final concentration of 1 μM in embryo medium for 24 h. Control zebrafish embryos were incubated at an equivalent concentration of DMSO. At the end of this 24 h treatment, embryos were manually dechorionated and imaged. Zebrafish embryos were maintained at 28° C. Results shown are representative of those obtained from at least 10 embryos for each group, from 2 independent experiments.

[1] = tested on: Nanog gene expression in ESCs; experiment: Real-time RT-PCR for Nanog in feeder-free ESCs; format: cell-based, mouse
Method: FIG. 2. […] Real-time RT-PCR for Nanog was performed. The control expression level of Nanog at day 0 was set at 1. FIG. 2B, removal of IQ-1 decreases Nanog gene expression in ESCs. IQ-1 was removed from ESCs which had been cultured under feeder-free system and in the presence of IQ-1 (4 μg/ml), for three days. At the end of this period, mRNA was isolated and real-time RT-PCR was performed to assay for Nanog gene expression. FIG. 2C, effects of IQ-1 were not mediated through Stat3 signaling pathway as judged by luciferase reporter assay. Feeder-free ESCs, transfected with the pSTAT3-TA-Luc reporter, were exposed to IQ-1 at the indicated doses, or LIF. All error bars represent mean±SD.
Real-time RT-PCR. Total RNA was isolated and reverse-transcribed using SuperScript III (Invitrogen). Real-time RT-PCR (Sybr Green; BioRad) was performed using with the gene-specific primers: […]

Mouse D3 ESCs = experiment: Long term expansion of ESCs without MEF feeders or LIF; format: cell-based
Method: FIG. 1. […] FIG. 1A, Structure of IQ-1. FIG. 1B, IQ-1 dose dependently maintains alkaline phosphatase activity. FIG. 1C, IQ-1, dose dependently, maintains SSEA-1 expression. SSEA-1 expression was analyzed 7 days after addition of IQ-1. FIG. 1D, IQ-1 enabled ESCs to proliferate in the undifferentiated state for at least 65 days, without MEF feeders or LIF. ESCs, in media supplemented with 4 μg/ml IQ-1, were passaged 2-3 times every week at 1×10^5-1×10^6 cells per 6 cm dish and counted. All error bars represent mean±SD.
(§1) Cell culture. ESCs, D3ES (ATCC CRL-1934) were maintained on Mitomycin C treated MEFs in mouse ESC medium containing DMEM (Invitrogen) supplemented with 15% FBS (Invitrogen), 0.1 mM MEM nonessential amino acids (Invitrogen), 0.1 mM 2-mercaptoethanol (Sigma), 2 mM L-glutamine (Invitrogen) and 1,000 U/ml LIF (CHEMICON). To remove MEFs, cells were collected by trypsinization and plated on gelatin-coated culture dishes for 20 min. Non-adherent cells consisting mainly of ESCs were replated on gelatin-coated culture dishes again. Non-adherent cells were used for further experiments. P19 cells were cultured according to conditions recommended by the ATCC. Cells were incubated at 37° C. in a 5% CO2 incubator. Purified Wnt3a was purchased (R&D Systems).
IQ-1 allowed for long term expansion of ESCs in culture without MEFs and without the addition of exogenous LIF. […]

[2] = tested on: p300 Ser89 phosphorylation; experiment: Immunoblot of p300 and phospho-serine89-p300 in P19 cells; format: cell-based; settings: Wnt3a stimulated P19 cells, 10 μM, 24 hours
Method: Detection of CBP, p300, and phospho-serine89-p300 in P19 cells. P19 cells exposed to either Wnt3A or vehicle control, after which IQ-1 was added to a final concentration of 10 μM. Control DMSO was 0.025%. Cells were incubated for 24 hours. At the end of this incubation period, cells were washed, lysed and subjected to SDS-PAGE. CBP and p300 were detected using the rabbit polyclonal antibody (A-22)(1:5000); and (C-20)(1:5000) (Santa Cruz), respectively. Phospho-serine89-p300 was detected using custom antisera at a dilution of 1:100.

CBP/β-catenin complex = molecular target: T1, CBP/β-catenin complex (Mus musculus, UniProt P45481); experiment: Co-immunoprecipitation of β-catenin with CBP in P19 cells; format: cell-based; settings: Wnt3a, 10 μM, 24 hours
T1 construct: endogenous in cells; host or cells: P19 cells (nuclear fraction)
T1 sequence (P45481 2-2441 limits assumed, one chain of several): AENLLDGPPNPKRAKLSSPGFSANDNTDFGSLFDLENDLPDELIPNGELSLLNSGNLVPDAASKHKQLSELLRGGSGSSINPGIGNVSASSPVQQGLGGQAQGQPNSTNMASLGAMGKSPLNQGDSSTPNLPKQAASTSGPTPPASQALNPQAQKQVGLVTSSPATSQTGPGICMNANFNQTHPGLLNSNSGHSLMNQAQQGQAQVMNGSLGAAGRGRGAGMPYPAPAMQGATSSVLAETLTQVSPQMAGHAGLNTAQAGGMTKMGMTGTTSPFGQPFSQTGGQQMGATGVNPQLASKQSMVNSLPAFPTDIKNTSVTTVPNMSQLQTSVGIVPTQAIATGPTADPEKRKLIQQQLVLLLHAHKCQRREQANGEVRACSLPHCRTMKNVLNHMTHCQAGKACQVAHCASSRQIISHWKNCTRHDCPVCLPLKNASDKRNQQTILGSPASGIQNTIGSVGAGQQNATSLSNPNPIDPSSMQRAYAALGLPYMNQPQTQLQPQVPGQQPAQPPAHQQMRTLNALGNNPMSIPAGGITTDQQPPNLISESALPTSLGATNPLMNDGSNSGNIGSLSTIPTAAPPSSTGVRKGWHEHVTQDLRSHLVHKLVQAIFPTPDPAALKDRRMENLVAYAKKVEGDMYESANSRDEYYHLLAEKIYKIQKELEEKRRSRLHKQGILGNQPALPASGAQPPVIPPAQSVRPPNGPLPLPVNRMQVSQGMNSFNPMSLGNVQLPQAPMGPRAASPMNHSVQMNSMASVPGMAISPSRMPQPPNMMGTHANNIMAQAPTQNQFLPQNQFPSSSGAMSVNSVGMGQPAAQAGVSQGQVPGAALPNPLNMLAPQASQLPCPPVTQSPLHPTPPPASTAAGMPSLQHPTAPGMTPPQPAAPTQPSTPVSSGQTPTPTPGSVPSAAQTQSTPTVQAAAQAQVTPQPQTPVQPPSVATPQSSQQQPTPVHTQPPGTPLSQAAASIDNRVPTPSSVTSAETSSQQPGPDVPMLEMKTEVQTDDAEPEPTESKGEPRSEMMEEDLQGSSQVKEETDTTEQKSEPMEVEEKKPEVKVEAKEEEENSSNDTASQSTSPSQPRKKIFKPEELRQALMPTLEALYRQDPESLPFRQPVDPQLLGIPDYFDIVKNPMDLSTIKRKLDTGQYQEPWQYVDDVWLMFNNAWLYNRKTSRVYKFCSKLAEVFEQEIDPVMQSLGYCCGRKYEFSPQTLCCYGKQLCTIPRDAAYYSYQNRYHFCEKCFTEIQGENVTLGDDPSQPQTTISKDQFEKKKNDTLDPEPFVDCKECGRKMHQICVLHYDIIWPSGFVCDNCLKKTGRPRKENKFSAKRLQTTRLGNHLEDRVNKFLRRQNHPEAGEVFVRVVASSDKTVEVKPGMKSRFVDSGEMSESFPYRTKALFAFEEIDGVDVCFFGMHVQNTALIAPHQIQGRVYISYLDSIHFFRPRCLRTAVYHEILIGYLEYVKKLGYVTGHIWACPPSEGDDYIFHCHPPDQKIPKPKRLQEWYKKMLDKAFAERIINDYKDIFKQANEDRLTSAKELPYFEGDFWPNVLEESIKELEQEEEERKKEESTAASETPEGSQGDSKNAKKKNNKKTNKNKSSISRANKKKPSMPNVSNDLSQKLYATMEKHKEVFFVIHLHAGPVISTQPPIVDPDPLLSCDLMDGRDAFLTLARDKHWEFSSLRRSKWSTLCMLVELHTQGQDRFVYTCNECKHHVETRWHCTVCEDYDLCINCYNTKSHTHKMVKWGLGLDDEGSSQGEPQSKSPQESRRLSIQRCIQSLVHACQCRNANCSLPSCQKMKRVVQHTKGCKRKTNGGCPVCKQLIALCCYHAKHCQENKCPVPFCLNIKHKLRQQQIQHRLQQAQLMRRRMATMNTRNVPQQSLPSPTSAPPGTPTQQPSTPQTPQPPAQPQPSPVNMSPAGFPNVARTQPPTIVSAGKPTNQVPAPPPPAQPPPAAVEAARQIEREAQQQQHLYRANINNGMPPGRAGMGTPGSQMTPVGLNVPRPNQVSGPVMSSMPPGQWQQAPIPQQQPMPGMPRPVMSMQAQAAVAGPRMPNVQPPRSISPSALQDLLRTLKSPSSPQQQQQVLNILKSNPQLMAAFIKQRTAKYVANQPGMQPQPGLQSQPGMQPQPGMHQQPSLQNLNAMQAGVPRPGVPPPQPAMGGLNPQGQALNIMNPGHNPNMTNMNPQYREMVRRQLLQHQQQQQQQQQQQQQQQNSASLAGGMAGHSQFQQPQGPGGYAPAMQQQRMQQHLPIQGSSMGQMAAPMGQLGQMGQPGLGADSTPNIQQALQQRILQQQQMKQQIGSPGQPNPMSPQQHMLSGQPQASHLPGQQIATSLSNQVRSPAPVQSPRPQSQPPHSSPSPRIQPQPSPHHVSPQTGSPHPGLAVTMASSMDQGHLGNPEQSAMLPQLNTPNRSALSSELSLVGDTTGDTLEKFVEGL
Method: (§2) Co-immunoprecipitation of β-catenin with CBP or p300 in P19 cells. Co-immunoprecipitation was performed as described in (27). Briefly, P19 cells were treated with 10 μM ICG-001 or 10 μM IQ-1 (control DMSO was 0.025%) for 24 hours, after which they were washed and lysed […]. Nuclear fraction was isolated and precleared with antibodies to CBP(A-22) or p300(N-15). β-catenin was detected using a mouse monoclonal antibody (Becton Dickinson) at a dilution of 1:5000.

p300/β-catenin complex = experiment: Co-immunoprecipitation of β-catenin with p300 in P19 cells; format: cell-based; settings: Wnt3a, 10 μM, 24 hours
Method: as §2

Murine ESCs (D3 ES) = experiment: Alkaline phosphatase activity of ESCs (compound screen); format: cell-based, mouse; settings: media containing 15% FCS, without exogenous LIF
Method: as §1
Compound Screens. For the small molecule screen, alkaline phosphatase activity of ESCs was determined. ESCs were plated into 96-well tissue culture plates (Falcon) at a density of 316-1,000 cells per well in ESC medium without LIF. Compounds were added at a final concentration of 4 μg/ml. Cells were treated with compounds for 7 days and test cell populations were washed with PBS and 100 μl of p-nitrophenyl phosphate solution (MOSS Inc.) was added. The absorbance at 405 nm was measured by spectrophotometer (Spectramax, Molecular Devices).

Stat3 signaling pathway = experiment: pSTAT3-TA-Luc luciferase reporter assay in ESCs; format: cell-based, mouse; settings: 24 hours exposure
Method: Transfection and Luciferase assay. ESCs were cultured in 96-well cell culture dishes coated with a 0.1% aqueous gelatin solution and transfected with 0.2 μg/well of pSTAT3-TA-Luc (CLONTECH), using Lipofectamine 2000 (Invitrogen). After 6 hours, cells were washed and exposed to either IQ-1 at the indicated doses, or LIF, for 24 hours. Transfection efficiencies were normalized with pRL-null luciferase plasmid. Luciferase assays were performed with the DUAL-Luciferase Reporter Assay System (Promega).

SMILES: CC(=O)c1ccc(NN=C(C(N)=O)C2=NC(C)(C)Cc3ccccc32)cc1 [IQ-1]
- zebrafish embryo development (zebrafish embryos): significant developmental defects
- Nanog level after removal of IQ-1 from culture ([1]; IQ-1 (4 μg/ml) removed for three days): precipitous drop in Nanog level
- Nanog expression ([1]; feeder-free ESCs, IQ-1 4 μg/ml or LIF 1000 U/ml, 21 hrs): significantly increased and maintained Nanog expression
- time ESCs proliferate in the undifferentiated state (Mouse D3 ESCs; 4 μg/ml IQ-1, without MEF feeders or LIF): at least 65 days
- ESC proliferation rate (Mouse D3 ESCs; 15% FCS plus 4 μg/ml IQ-1, 65 days, without MEFs or LIF): ~2 log increase every ten days
- phosphorylation level of p300 Ser89 [2]: dramatic decrease
- total amount of p300 [2]: not affected
- relative amount of β-catenin associated with CBP (CBP/β-catenin complex): dramatic increase
- p300/β-catenin interaction (p300/β-catenin complex): at the expense of the p300/β-catenin complex
- Alkaline Phosphatase (AP) activity (Murine ESCs (D3 ES)): dose dependently increased AP activity
- Stat3/luciferase expression (Stat3 signaling pathway): did not affect Stat3/luciferase expression

From US20070128669A1, “Serum-free expansion of cells in culture” (Institute for Chemical Genomics, priority 2005, published 2007)
